# From patent publication US20240217963A1, “RECEPTOR-INTERACTING PROTEIN 1 INHIBITORS, PREPARATIONS, AND USES THEREOF” (SIRONAX LTD., priority 2021, published 2024)
# Biological target: T1, RIP1 (Homo sapiens, UniProt Q13546)
# T1 sequence (Q13546 1-671): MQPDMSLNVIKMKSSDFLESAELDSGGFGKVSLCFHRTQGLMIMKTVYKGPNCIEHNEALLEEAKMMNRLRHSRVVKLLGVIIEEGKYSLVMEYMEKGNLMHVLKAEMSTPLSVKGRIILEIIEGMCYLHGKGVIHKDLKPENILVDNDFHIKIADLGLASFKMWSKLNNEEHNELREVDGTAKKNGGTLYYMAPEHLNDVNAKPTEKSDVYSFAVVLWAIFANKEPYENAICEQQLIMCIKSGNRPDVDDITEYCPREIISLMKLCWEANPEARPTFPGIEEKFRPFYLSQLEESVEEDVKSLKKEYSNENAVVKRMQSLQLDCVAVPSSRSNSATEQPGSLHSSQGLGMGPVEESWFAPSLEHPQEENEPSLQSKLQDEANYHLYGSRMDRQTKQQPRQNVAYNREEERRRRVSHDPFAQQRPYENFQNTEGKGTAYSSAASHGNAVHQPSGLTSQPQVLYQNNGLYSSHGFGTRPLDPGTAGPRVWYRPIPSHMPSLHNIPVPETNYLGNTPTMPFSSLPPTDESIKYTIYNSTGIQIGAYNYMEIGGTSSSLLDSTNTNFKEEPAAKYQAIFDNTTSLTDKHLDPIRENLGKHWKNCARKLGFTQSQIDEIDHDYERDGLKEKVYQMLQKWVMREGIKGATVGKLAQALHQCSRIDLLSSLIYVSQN
# Assay: Cellular RIP1 inhibitory activity: HT-29 necroptosis (TNFα/SMAC mimetic/zVAD-FMK) CellTiter-Glo viability assay
# Assay type: cell-based
# Conditions: HT-29 cells, TNF-α 10 ng/ml + SMAC mimetic 6 μM + zVAD-FMK 10 μM, 20 hours, geometric mean, read-out: EC50 Values of in vitro Cellular RIP1 Inhibitory Activity
# Procedure: Compounds 1-99 (denoted as Cmpd Nos. 1 through 99 in Table 2 below) of the disclosure were tested for binding and cellular RIP1 inhibitory activity following the experimental procedures described below. Cell Seeding • 1. HT-29 cells were checked every day to make sure that they were healthy and growing as expected. They were subjected to sub-culturing when they were approximately 80% confluent. • 2. The culture medium, McCOY's 5 A medium (Gibco, Cat No. 16600-082) with 10% fetal bovine serum or FBS (Gibco, Cat No. 10099-141C), was pre-warmed in a 37° C. water bath for at least 30 min. • 3. When the cells had reached a desired level of confluency of 80% in a T75 flask, the medium was aspirated, and the cells were washed with warm phosphate buffered saline or PBS two times. • 4. 2-3 ml fresh warm trypsin (Gibco, Cat No. 25200-056) solution was added to the washed cells. The flask with the cells was transferred to a 37° C. incubator. • 5. After 5 minutes, the side of the flask was tapped, and the flask was examined under a microscope for detachment of the cells to the flask. If necessary, the cells were kept in the incubator for an additional 5-10 minutes, with occasional tapping, until lifting was complete. • 6. The trypsin reaction was neutralized by transferring 6-9 ml cell culture medium to sterile 15 ml conical tubes, and by centrifuging the cell culture at 300×g for 7 minutes to pellet the cells (supernatant decanted). • 7. The cells were resuspended in fresh cell culture medium and the cell counting was performed using a hemocytometer. • 8. 100 μl of the resuspended cell culture medium containing ˜5,000 cells were transferred into each well of the sterile 96-well cell culture plate (Corning 3903) and cultured overnight at 37° C. with 5% CO2. Compound Titration and Treatment • 1. All test compounds were dissolved in DMSO (Dimethyl sulfoxide) to create a 20 mM stock. • 2. 3 μl of each compound 20 mM stock was mixed with 27 μl DMSO, and the compound solution was further diluted at a titration ratio of 1:3 (20 μl compound solution+40 μl DMSO) till the 10 points end. • 3. All culture medium was removed from assay plates filled with HT-29 cell cultures. […] 0.5 μL of the diluted compound solution was added to the corresponding 96-well assay plates. • 5. The assay plates were incubated for 20 hours at 37° C. with 5% CO2. Cell Viability Detection • 1. The CellTiter-Glo® Luminescent Cell Viability Assay was employed to detect the ATP levels of viable HT-29 cells. • 2. The CellTiter-Glo® buffer and the lyophilized substrate were equilibriated to room temperature prior to use. • 3. The CellTiter-Glo® substrate was resuspended with CellTiter-Glo® buffer, then mixed by gently vortexing to obtain a homogeneous solution. • 4. 20 μl the enzyme/substrate mixture was transferred by multi-channel pipetting into 96-well assay plates. • 5. The assay plates were placed on an orbital shaker and the contents were shaken for 3 minutes to induce cell lysis. • 6. The assay plates were incubated at room temperature for 10 minutes to stabilize the luminescent signal. • 7. The luminescence signals were read and recorded with EnVision. • 8. The geometric mean EC50 values were calculated from 10 points response dose with duplicates. In Table 2, activity is provided as follows: +++=0.1 nM≤EC50<100 nM; ++=100 nM≤EC50<1000 nM; +=1000 nM≤EC50<10000 nM.
row,Structure (SMILES),EC50 [nM]
1,Cc1nc(CN(C)C(=O)C2CCN(c3ncc(F)c(-c4c(C)cnn4C)n3)CC2)c(C)s1 [Compound 92],100 to 1000
2,"Cc1cnn(C)c1-c1cc(N2CCC(C(=O)NCc3cc(F)cc(F)c3)CC2)ncn1 [Compound 42, N-(3,5-difluorobenzyl)-1-(6-(1,4-dimethyl-1H-pyrazol-5-yl)pyrimidin-4-yl)piperidine-4-carboxamide]",100 to 1000
3,"Cc1cnn(C)c1-c1nc(N2CCC(C(=O)N(O)Cc3ccnn3C)CC2)ncc1F [Compound 27, 1-(4-(1,4-dimethyl-1H-pyrazol-5-yl)-5-fluoropyrimidin-2-yl)-N-hydroxy-N-((1-methyl-1H-pyrazol-5-yl)methyl)piperidine-4-carboxamide]",100 to 1000
4,"Cc1cnn(C)c1-c1nc(N2CCC(F)(C(=O)N(O)Cc3cc(F)cc(F)c3)CC2)ncc1F [Compound 17, N-(3,5-difluorobenzyl)-1-(4-(1,4-dimethyl-1H-pyrazol-5-yl)-5-fluoropyrimidin-2-yl)-4-fluoro-N-hydroxypiperidine-4-carboxamide]",0.1 to 100
5,"Cc1cnn(C)c1-c1nc(N2CCC(C(=O)N(O)C(C)c3ccccc3)CC2)ncc1F (centres unmarked) [Compound 34, 1-(4-(1,4-dimethyl-1H-pyrazol-5-yl)-5-fluoropyrimidin-2-yl)-N-hydroxy-N-(1-phenylethyl)piperidine-4-carboxamide]",0.1 to 100
6,Cc1cnn(C)c1-c1nc(N2CCC(C(=O)N(O)Cc3cnsc3)CC2)ncc1F [Compound 51],0.1 to 100
7,"Cc1cnn(C)c1-c1nc(N2CCC(C(=O)N(O)Cc3cc(F)cc(F)c3)CC2)ncc1F [Compound 4, N-(3,5-difluorobenzyl)-1-(4-(1,4-dimethyl-1H-pyrazol-5-yl)-5-fluoropyrimidin-2-yl)-N-hydroxypiperidine-4-carboxamide]",0.1 to 100
8,"Cn1ncnc1-c1nc(N2CCC(C(=O)N(O)Cc3cc(F)cc(F)c3)CC2)ncc1F [Compound 15, N-(3,5-difluorobenzyl)-1-(5-fluoro-4-(1-methyl-1H-1,2,4-triazol-5-yl)pyrimidin-2-yl)-N-hydroxypiperidine-4-carboxamide]",0.1 to 100
9,"CCN(Cc1cc(F)cc(F)c1F)C(=O)C1CCN(c2ncc(F)c(-c3c(C)cnn3C)n2)CC1 [Compound 67, 1-(4-(1,4-dimethyl-1H-pyrazol-5-yl)-5-fluoropyrimidin-2-yl)-N-ethyl-N-(2,3,5-trifluorobenzyl)piperidine-4-carboxamide]",0.1 to 100
10,"CCN(Cc1cc(C)n(C)n1)C(=O)C1CCN(c2ncc(F)c(-c3c(C)cnn3C)n2)CC1 [Compound 80, N-((1,5-dimethyl-1H-pyrazol-3-yl)methyl)-1-(4-(1,4-dimethyl-1H-pyrazol-5-yl)-5-fluoropyrimidin-2-yl)-N-ethylpiperidine-4-carboxamide]",100 to 1000
11,"Cc1nc(C)n(-c2nc(N3CCC(C(=O)N(O)Cc4ncccc4F)CC3)ncc2F)n1 [Compound 13, 1-(4-(3,5-dimethyl-1H-1,2,4-triazol-1-yl)-5-fluoropyrimidin-2-yl)-N-((3-fluoropyridin-2-yl)methyl)-N-hydroxypiperidine-4-carboxamide]",0.1 to 100
12,"Cc1cnn(C)c1-c1nc(N2CCC(C(=O)N(O)Cc3cncs3)CC2)ncc1F [Compound 16, 1-(4-(1,4-dimethyl-1H-pyrazol-5-yl)-5-fluoropyrimidin-2-yl)-N-hydroxy-N-(thiazol-5-ylmethyl)piperidine-4-carboxamide]",0.1 to 100
13,"Cc1nc(C)n(-c2nc(N3CCC(C(=O)N(C)Cc4cc(F)cc(F)c4)CC3)ncc2F)n1 [Compound 64, N-(3,5-difluorobenzyl)-1-(4-(3,5-dimethyl-1H-1,2,4-triazol-1-yl)-5-fluoropyrimidin-2-yl)-N-methylpiperidine-4-carboxamide]",0.1 to 100
14,"Cc1cnn(C)c1-c1nc(N2CCC(C(=O)NCc3cc(F)cc(F)c3)CC2)ncc1F [Compound 62, N-(3,5-difluorobenzyl)-1-(4-(1,4-dimethyl-1H-pyrazol-5-yl)-5-fluoropyrimidin-2-yl)piperidine-4-carboxamide]",0.1 to 100
